Experimental data reported in ChEMBL document CHEMBL2202954, “The effect of PLC-γ2 inhibitors on the growth of human tumour cells” (2012).

What was measured:
Assay type in all cases: functional
T47D = assay: Cytotoxicity against human T47D cells assessed as cellular growth at 10 uM by SRB assay
Hs-578T = assay: Cytotoxicity against human Hs578T cells assessed as cellular growth at 10 uM by SRB assay
PC-3 = assay: Cytotoxicity against human PC3 cells assessed as cellular growth at 10 uM by SRB assay
RXF 393 = assay: Cytotoxicity against human RXF393 cells assessed as cellular growth at 10 uM by SRB assay
786-0 = assay: Cytotoxicity against human 786-0 cells assessed as cellular growth at 10 uM by SRB assay
SK-OV-3 = assay: Cytotoxicity against human SKOV3 cells assessed as cellular growth at 10 uM by SRB assay
UACC-62 = assay: Cytotoxicity against human UACC62 cells assessed as cellular growth at 10 uM by SRB assay
UACC-257 = assay: Cytotoxicity against human UACC257 cells assessed as cellular growth at 10 uM by SRB assay
SK-MEL-5 = assay: Cytotoxicity against human SK-MEL-5 cells assessed as cellular growth at 10 uM by SRB assay
MDA-MB-435 = assay: Cytotoxicity against human MDA-MB-435 cells assessed as cellular growth at 10 uM by SRB assay
M14 = assay: Cytotoxicity against human M14 cells assessed as cellular growth at 10 uM by SRB assay
LOX IMVI = assay: Cytotoxicity against human LOXIMVI cells assessed as cellular growth at 10 uM by SRB assay
U-251 = assay: Cytotoxicity against human U251 cells assessed as cellular growth at 10 uM by SRB assay
SNB-19 = assay: Cytotoxicity against human SNB19 cells assessed as cellular growth at 10 uM by SRB assay
SF-539 = assay: Cytotoxicity against human SF539 cells assessed as cellular growth at 10 uM by SRB assay
KM12 = assay: Cytotoxicity against human KM12 cells assessed as cellular growth at 10 uM by SRB assay
HCT-116 = assay: Cytotoxicity against human HCT116 cells assessed as cellular growth at 10 uM by SRB assay
COLO 205 = assay: Cytotoxicity against human COLO205 cells assessed as cellular growth at 10 uM by SRB assay
NCI-H322M = assay: Cytotoxicity against human NCI-H322M cells assessed as cellular growth at 10 uM by SRB assay
RPMI-8226 = assay: Cytotoxicity against human RPMI8226 cells assessed as cellular growth at 10 uM by SRB assay

Compound | Activity (T47D) [%] | Activity (Hs-578T) [%] | Activity (PC-3) [%] | Activity (RXF 393) [%] | Activity (786-0) [%] | Activity (SK-OV-3) [%] | Activity (UACC-62) [%] | Activity (UACC-257) [%] | Activity (SK-MEL-5) [%] | Activity (MDA-MB-435) [%] | Activity (M14) [%] | Activity (LOX IMVI) [%] | Activity (U-251) [%] | Activity (SNB-19) [%] | Activity (SF-539) [%] | Activity (KM12) [%] | Activity (HCT-116) [%] | Activity (COLO 205) [%] | Activity (NCI-H322M) [%] | Activity (RPMI-8226) [%]
Cc1ccc(C(=O)/C=C2/Nc3ccc(C)cc3OC2=O)cc1 | 104.44 | 122.96 | 101.93 | 112.41 | 111.25 | 115.37 | 96.95 | 103.75 | 100.21 | 106.99 | 106.88 | 104.53 | 108.93 | 104.52 | 108.44 | 106.74 | 110.04 | 120.49 | 106.47 | 56.86
Cc1cccc(-c2nc(-c3cccs3)no2)c1 | 53.59 | 81.63 | 80.3 | 126.03 | 93.47 | 94.86 | 86.85 | 93.98 | 82.84 | 110.16 | 102.43 | 95.98 | 82.28 | 106.75 | 115.88 | 104.19 | 96.5 | 111.56 | 95.9 | 92.97
Cc1ccc(Cl)cc1NC(=O)c1sc2nc3c(cc2c1N)C(=O)CCC3 | 82.87 | 60.85 | 55.81 | 42.15 | 89.229 | 42.36 | 53.09 | 44.88 | 26.98 | -3.04 | 62.9 | 68.07 | 59.13 | 68.14 | 47.69 | 37.01 | 67.98 | 39.71 | 95.72 | 95.05
O=C(NCCc1ccccc1)c1cc2cccc([N+](=O)[O-])c2[nH]1 | 69.69 | 111.09 | 77.13 | 105.34 | 105.28 | 91.43 | 71.51 | 108.88 | 76.25 | 109.58 | 100.89 | 85.8 | 97.58 | 97.53 | 103.09 | 106.02 | 101.79 | 90.85 | 115.94 | 88.5
Cc1cc(C)c(NC(=O)c2sc3nc4c(cc3c2N)C(=O)CCC4)c(C)c1 | 40.64 | 17.68 | 23.46 | -6.65 | 30.39 | 10.43 | 23.22 | 48.69 | 11.34 | -34.35 | 16.41 | 50.61 | 21.13 | 40.22 | -6.5 | 27.28 | 23.12 | -6.14 | 56.34 | 31.83
O=C(Nc1ccc2oc(=O)ccc2c1)c1ccc(-c2ccc(Br)cc2)o1 | 100.95 | 104.83 | 111.02 | 112.24 | 95.42 | 112.03 | 104.75 | 114.76 | 100.82 | 112.48 | 114.52 | 105.3 | 98.16 | 105.93 | 101.06 | 114.03 | 103.94 | 124.46 | 154.44 | 108.92
c1ccc(-c2nc(-c3cccs3)no2)cc1 | 65.5 | 100.69 | 96.07 | 122.84 | 107.03 | 106.03 | 93.02 | 103.2 | 97.58 | 113.41 | 111.09 | 99.72 | 94.72 | 108.69 | 105.74 | 99.88 | 104.23 | 114.24 | 122.94 | 102.22
O=C(Nc1ccc(S(=O)(=O)Nc2nccs2)cc1)c1cccs1 | 105.19 | 122.2 | 113.66 | 110.47 | 104.56 | 117.21 | 104.61 | 102.54 | 107.39 | 110.15 | 110.69 | 110.65 | 101.85 | 106.66 | 105.81 | 114.86 | 108.46 | 135.23 | 104.64 | 107.43
O=C(NCc1ccc(Cl)cc1)c1[nH]c2ccccc2c1Cl | 96.29 | 100.36 | 87.3 | 104.01 | 106.78 | 98.27 | 96.15 | 117.15 | 95.97 | 103.29 | 117.92 | 95.45 | 105.3 | 108.55 | 118.51 | 95.16 | 103.25 | 104.86 | 113.2 | 90.9
Cc1ccccc1NC(=O)c1sc2nc3c(cc2c1N)C(=O)CCC3 | 43.92 | 25.78 | 30.33 | -10.38 | 51.56 | 22.08 | 36.9 | 60.99 | 18.64 | -12.89 | 41.54 | 47.43 | 48.96 | 46.1 | 27.63 | 19.22 | 34.55 | 6.12 | 71.39 | 67.19
COc1cccc(C(=O)Nc2nc3ccc(Cl)cc3s2)c1 | 79.7 | 110.55 | 78.16 | 102.21 | 98.19 | 90.86 | 87.44 | 94.74 | 81.61 | 34 | 102.54 | 94.46 | 87.76 | 113.6 | 101.47 | 49.84 | 92.95 | 105.5 | 104.25 | 84.4
O=C(NCCc1ccccc1)c1[nH]c2ccccc2c1Cl | 71.67 | 97.21 | 70.3 | 103.44 | 102.69 | 91.3 | 84.19 | 96.54 | 82.39 | 96.07 | 106.45 | 89.47 | 92.92 | 99.04 | 102.52 | 72.97 | 87.15 | 99.13 | 98.86 | 71.07
Nc1c(C(=O)Nc2ccccc2)sc2nc3c(cc12)C(=O)CCC3 | 47.06 | 37.53 | 21.62 | -9.9 | 36.19 | 19.71 | 44.06 | 52.83 | 25.74 | -5.95 | 1.11 | 51.19 | 25.69 | 36.05 | 0.84 | 19.9 | 23.57 | -18.41 | 67.12 | 30.21
Nc1c(C(=O)Nc2ccc(Cl)c(Cl)c2)sc2nc(-c3cccs3)ccc12 | 85.21 | 129.34 | 85.43 | 92.71 | 88.45 | 105.1 | 79.48 | 91.24 | 90.4 | 83.41 | 87.97 | 43.3 | 83.86 | 95.32 | 79.24 | 99.94 | 75.19 | 115.1 | 95.09 | 87.02
